Results published in patent US7906300B2, “Methods for diagnosing an attention-deficit/Hyperactivity disorder” (PsychNostics, LLC, priority 2005, dated 2011).

Assays:
Format in all cases: cell-based, human
whole blood cells [1] = assay: Membrane potential ratio of whole blood cells, clinical trials (DiOC6(3) fluorescence); details: for ratio of intensity in K+-free buffer with 30 μM ethacrynate to intensity in K+-containing buffer without ethacrynate, Median: plate reader
Description: Because the volume of blood required to collect enough lymphocytes was beyond that permitted by the current protocol, the membrane potential of whole blood cells was determined. The volume of whole blood required was approximately 1 ml. The blood samples were kept on ice until they were stored at 4° C. All of the samples were tested within 48 hours.
Whole blood samples drawn from patients and controls were suspended in K^+-containing buffer without ethacrynate and in K^+-free buffer with 30 μM ethacrynate or with 100 mM sorbitol. The fluorescent dye DiOC6(3) was added to both suspensions and incubated for 30 minutes. The cell suspensions loaded with the dye were centrifuged, drained and resuspended in the respective buffers. The fluorescence intensity was measured for 10 seconds and the ratio of the intensity in K^+-free buffer to the intensity in K^+-containing buffer was calculated.
Whole blood samples drawn from patients and controls were suspended both in K^+-containing buffer and in K^+-free buffer with 30 μM ethacrynate or with 100 μM sorbitol. The fluorescent dye DiOC6(3) was added to both suspensions and incubated for 30 minutes. The cell suspensions loaded with the dye were centrifuged, drained and resuspended in the respective buffers. The fluorescence intensity was measured for 10 seconds and the ratio of the intensity in K^+-free buffer to the intensity in K^+-containing buffer was calculated.
An individual patient's cell sample was tested as described herein and six to twelve ratios were calculated. These values were treated as a group and compared with a normal control group (negative control) and a bipolar group (positive control).
(§1) Cells from control, bipolar I and bipolar II individuals were compared amongst each other as described herein. Whole blood samples drawn from patients and controls and aliquots were suspended either in K^+-containing buffer without ethacrynate, or in K^+-free buffer with 30 μM ethacrynate. The fluorescent dye DiOC6(3) was added to the suspensions and incubated for 30 minutes. The cell suspensions loaded with the dye were centrifuged, drained and resuspended in the respective buffers. The fluorescence intensity was measured for 10 seconds and the ratio of the intensity in K^+-free buffer to the intensity in K^+-containing buffer was calculated. Plate Reader (PerkinsElmer Victor V) was used for intensity measurements).
as §1, with “ADHD” for “bipolar II”

lymphoblasts [2] = assay: Membrane potential of lymphoblasts by DiOC6(3) fluorescence intensity ratio, with/without compound
Text: Three groups of immortalized lymphoblast samples were obtained from the Human Genetic Mutant Cell Repository (Coriell Institute for Medical Research, Camden N.J.). The samples are shown in Table 4 below and included six from affected (bipolar I disorder) patients (A1 through A6), six from their siblings (S1 through S6), and six from unrelated normal control subjects matched by age and sex (N1 through N6).
(§2) The membrane potentials of the bipolar I cells shown in Table 4 above (as well as in all other experiments, except where indicated) were measured using the following protocol. The cells cultured in the media described above were centrifuged at 210 g for 5 minutes at room temperature, then suspended in 3 ml of K^+-containing stock buffer (5 mM KCl, 4 mM NaHCO3, 5 mM HEPES, 134 mM NaCl, 2.3 mM CaCl2, and 5 mM glucose). The cells were counted and the desired number of cells were again suspended in the K^+-containing buffer. The membrane potentials were measured using 3,3′-dihexyloxacarbocyanine iodide DiOC6(3), a cell-permeant, voltage sensitive, green-fluorescent dye (Molecular Probes Inc. Eugene, Oreg. USA). […]
(§3) A fluorescence spectrometer (F2500 Hitachi, Japan) was used for the measurement of the membrane potential by measuring the fluorescence intensity of DiOC6(3), which is directly proportional to the membrane potential. The intensity of fluorescence was measured at an excitation wavelength of 488 nm and an output wavelength of 540 nm. […]
Membrane potential was expressed according to fluorescence intensity using the following equation: I=CV, wherein I is the fluorescence intensity of a lipophilic fluorescent dye DiOC6(3) being only one example of such a dye); V is the voltage or membrane potential; and C is a constant that can vary depending on a number of factors such as, but not limited to, temperature, lamp intensity, number of cells, concentration of the fluorescent dye, incubation time, and lipid composition of cells used. […]
Membrane potentials were also measured in K^+-free buffer to enable comparison with membrane potentials in K^+-containing buffer. […]

lymphoblasts [3] = assay: Rate of drop in membrane potential (repolarization rate) of lymphoblasts, with/without compound; details: 30 min, K+-free and K+-containing buffer
Description: as §2, §3
The rate of drop in membrane potential after incubation with the protein kinase C (PKC) activator, phorbol 12-myristate 13-acetate (PMA), was compared in affected cells to that of unaffected cells. The membrane potential of these cells was determined by measuring the fluorescence intensity as described above. […]

whole blood cells [4] = assay: Membrane potential ratio of whole blood cells, clinical trials (DiOC6(3) fluorescence); details: open trial; bipolar patients; 100 mM sorbitol; FIG. 13

Q: Which “ratio of fluorescence intensity in K+-free buffer containing 30 μM ethacrynate to that in K+-containing buffer without ethacrynate, Mean” value (whole blood cells [1]; blind clinical trial, Controls) does the source give for `C=C(CC)C(=O)c1ccc(OCC(=O)O)c(Cl)c1Cl` [ethacrynate] here?
A: 0.850

Q: What about the “ratio of fluorescence intensity in K+-free buffer containing 30 μM ethacrynate to that in K+-containing buffer without ethacrynate, Median” value (whole blood cells [1]; blind clinical trial, Controls) of the same compound?
A: 0.850

Q: What about the “ratio of fluorescence intensity in K+-free buffer containing 30 μM ethacrynate to that in K+-containing buffer without ethacrynate, Mean” value (whole blood cells [1]; blind clinical trial, Schizophr.) of the same compound?
A: 0.870

Q: What about the “ratio of fluorescence intensity in K+-free buffer containing 30 μM ethacrynate to that in K+-containing buffer without ethacrynate, Mean” value (whole blood cells [1]; individual Patient A (diagnosed bipolar)) of the same compound?
A: 0.766

Q: What about the “ratio of fluorescence intensity in K+-free buffer containing 30 μM ethacrynate to that in K+-containing buffer without ethacrynate, Mean” value (whole blood cells [1]; open clinical trial, Bipolars) of the same compound?
A: 0.780

Q: And the “ratio of intensity in K+-free buffer with 30 μM ethacrynate to intensity in K+-containing buffer without ethacrynate, Median” value (whole blood cells [1]; ADHD group)?
A: 0.808

Q: And the “ratio of intensity in K+-free buffer with 30 μM ethacrynate to intensity in K+-containing buffer without ethacrynate, Median” value (whole blood cells [1]; BPD I group)?
A: 0.606

Q: What about the “ratio of intensity in K+-free buffer with 30 μM ethacrynate to intensity in K+-containing buffer without ethacrynate, Median” value (whole blood cells [1]; BPD II group) of the same compound?
A: 0.648

Q: And the “ratio of intensity in K+-free buffer with 30 μM ethacrynate to intensity in K+-containing buffer without ethacrynate, Median” value (whole blood cells [1]; Negative (control) group)?
A: 0.676

Q: What about the “relative intensity ratio of affected cells compared with unaffected cells” value (lymphoblasts [2]; 30 μM ethacrynate, K+-free vs K+-containing buffer, t-test P=0.009, FIG. 5) of the same compound?
A: significantly higher

Q: What about the “intensity ratio (membrane potential with ethacrynate/without ethacrynate) of affected cells compared with unaffected cells” value (lymphoblasts [2]; K+-free buffer, 30 μM ethacrynate, t-test P=0.032, FIG. 6) of the same compound?
A: significantly higher

Q: What about the “relative rate of repolarization in affected cells compared with unaffected cells” value (lymphoblasts [3]; 30 μM ethacrynate, P=0.041, FIG. 7) of the same compound?
A: significantly higher

Q: With `CC[C@@]1([C@@H]2O[C@@H]([C@H]3O[C@@](O)(CO)[C@H](C)C[C@@H]3C)C[C@@H]2C)CC[C@H]([C@]2(C)CC[C@]3(C[C@H](O)[C@@H](C)[C@@H]([C@@H](C)[C@@H](OC)[C@H](C)C(=O)O)O3)O2)O1` [monensin] as the compound, how does the “intensity ratio (membrane potential with monensin/without monensin) of affected cells compared with unaffected cells” value (lymphoblasts [2]; K+-free buffer, 10 μM monensin, 30 min, t-test P=0.009, FIG. 8) read?
A: significantly lower

Q: How did the “fluorescence intensity ratio of bipolar cells with sorbitol in K+-free buffer, compared with ethacrynate” value (whole blood cells [4]) turn out when `OC[C@@H](O)[C@@H](O)[C@H](O)[C@@H](O)CO` [sorbitol] was run?
A: comparable to the results with ethacrynate

Q: How did the “relative ratio of repolarization rates in affected cells compared with unaffected cells” value (lymphoblasts [3]; 2 μM PMA, P=0.046, FIG. 10) turn out when `CCCCCCCCCCCCCC(=O)O[C@@H]1[C@@H](C)[C@@]2(O)[C@@H](C=C(CO)C[C@]3(O)C(=O)C(C)=C[C@@H]23)[C@@H]2C(C)(C)[C@]12OC(C)=O` [PMA, phorbol 12-myristate 13-acetate] was run?
A: significantly lower
